Laboratory results taken from article PMC4506051, “Pharmacokinetic Profiles of Active Ingredients and Its Metabolites Derived from Rikkunshito, a Ghrelin Enhancer, in Healthy Japanese Volunteers: A Cross-Over, Randomized Study” (PLoS ONE, 2015).

Columns and labels:
[1] = Exploratory trial: amount of rikkunshito ingredients in urine; assay type: in vivo, human
Experimental: (§1) In the first exploratory trial, 20-mL blood samples were collected from the cutaneous vein in the subjects’ forearm via a blood sampling tube that contained heparin at 0 (preadministration), 0.5, 1, 2, 4, and 8 h after a single oral administration of rikkunshito (Lot E24652). The dose of rikkunshito used in this trial was 7.5 g/day, which is the clinical daily dose, to widely explore rikkunshito-derived ingredients that enter the blood. Along with plasma, urine samples were collected at three points: between dinner and bedtime (preadministration), between 0 and 4 h after administration, and between 4 and 8 h after administration. The blood was immediately centrifuged at 1700 ×g for 10 min to obtain plasma. Plasma and urine fractions were stored at −80°C or lower until analysis.
(§2) For quantification of synephrine, 5 µL of standard solution or methanol was added to 100 µL plasma or urine samples followed by mixing. Ten microliters of erythromycin [internal standard (IS)] solution was added to the solutions followed by mixing and centrifugation (20,400 ×g, 5 min, 4°C). The supernatants were loaded onto an Ostro 96-well plate (Waters) and centrifuged (1500 ×g, 3 min, 4°C) followed by injection into the LC–MS/MS.
(§3) For quantification of 30 ingredients other than atractylodin and synephrine, 25 µL of standard solution or methanol was added to 500 µL plasma or urine samples followed by mixing. Atractylenolide III or digoxin (IS) solution (50 μL) was added to the solutions followed by mixing. For urine, 400 µL of blank plasma was added to the solutions. Ammonium acetate solution (100 mM, 100 or 400 µL) was added to the solutions followed by mixing. For enzymatic treatment, plasma and urine samples were incubated with β-glucuronidase (100 units in 100 mM ammonium acetate) for 2 h at 37°C. A solid-phase cartridge (OASIS HLB, 30 mg/1cc, Waters) was conditioned with methanol and 10 mM ammonium acetate solution, and the samples were loaded onto the cartridge. The cartridge was washed water : methanol (9:1, v/v), and 1.5 mL of methanol and 30 µL of propylene glycol were added to the cartridge to elute the analytes. The mixtures were dried at 25°C under a stream of nitrogen gas. Furthermore, 100 μL of 10 mM ammonium acetate : methanol (8:2, v/v) was added to the dried samples followed by mixing and sonication. The solutions were filtered (0.22 µm) and followed by injection into the LC–MS/MS system. […] Those analytical conditions are summarized in S2 Table and S3 Table.

[2] = Stability of ingredients in gastric pH solution (pH 1.2, 37°C); assay type: physicochemical
Experimental: Rikkunshito gradually dissolved in acidic solution (pH 1.2) at 37°C, and the concentration of atractylodin after adding 0.25, 0.5, 1, and 2 h was measured by gas chromatography–mass spectrometry.

[3] = Exploratory trial: plasma concentration of rikkunshito ingredients after single oral rikkunshito 7.5 g; assay type: in vivo; conditions: for Plasma concentration, 0 h: 0 h (preadministration), single oral rikkunshito 7.5 g; for Plasma concentration, 4 h: 4 h after single oral rikkunshito 7.5 g; for Plasma concentration, 8 h: 8 h after single oral rikkunshito 7.5 g
Experimental: A random sequence was generated using a computer. The safety endpoint was evaluated in all volunteers.
as §1, §2, §3

[4] = Exploratory trial: ingredients in β-glucuronidase (enzyme)-treated plasma; assay type: in vivo, human; conditions: β-glucuronidase-treated, rikkunshito 7.5 g, mean ± S.D., n = 4
Experimental: as §1, §3

[5] = Exploratory trial: ingredients in β-glucuronidase (enzyme)-treated urine; assay type: in vivo, human
Experimental: as §1, §3

[6] = Method validation: stability in standard, stock and working solution; conditions: IS 2000 ng/mL
[7] = 0–4 h after single oral rikkunshito 7.5 g, mean ± S.D., n = 4
[8] = 4–8 h after single oral rikkunshito 7.5 g, mean ± S.D., n = 4
[9] = preadministration (between dinner and bedtime), mean ± S.D., n = 4
[10] = rikkunshito in acidic solution (pH 1.2) at 37°C, 0.5 h
[11] = rikkunshito in acidic solution (pH 1.2) at 37°C, 1 h
[12] = rikkunshito in acidic solution (pH 1.2) at 37°C, 2 h
[13] = β-glucuronidase-treated, 0–4 h after rikkunshito 7.5 g, mean ± S.D., n = 4
[14] = β-glucuronidase-treated, 4–8 h after rikkunshito 7.5 g, mean ± S.D., n = 4
[15] = β-glucuronidase-treated, preadministration, mean ± S.D., n = 4

SMILES | Amount in urine, 0–4 h [1, 7] | Amount in urine, 4–8 h [1, 8] | Amount in urine, Pre [1, 9] | Stability in gastric pH solution, Quantitative value [2, 10] | Stability in gastric pH solution, Quantitative value [2, 11] | Stability in gastric pH solution, Quantitative value [2, 12] | Stability in gastric pH solution, Quantitative value ([2]; 0.5 h, pH 1.2) | Stability in gastric pH solution, Quantitative value ([2]; 1 h, pH 1.2) | Stability in gastric pH solution, Quantitative value ([2]; 2 h, pH 1.2) | Amount in enzyme-treated urine, 0–4 h [5, 13] | Amount in enzyme-treated urine, 4–8 h [5, 14] | Amount in enzyme-treated urine, Pre [5, 15] | further results
CC(C)=CCC[C@](C)(O)[C@H]1CC[C@]2(C)[C@@H]1[C@H](O)C[C@@H]1[C@@]3(C)CC[C@H](O)C(C)(C)[C@@H]3[C@@H](O[C@@H]3O[C@H](CO)[C@@H](O)[C@H](O)[C@H]3O[C@@H]3O[C@H](CO)[C@@H](O)[C@H](O)[C@H]3O)C[C@]12C [Ginsenoside Rf] | 48.2 ± 64.4 ng | 23.0 ± 20.4 ng | BQL | 190 ng/mL | 159 ng/mL | 113 ng/mL | – | – | – | – | – | – | –
CC(C)=CCC[C@](C)(O[C@@H]1O[C@H](CO)[C@@H](O)[C@H](O)[C@H]1O)[C@H]1CC[C@]2(C)[C@@H]1[C@H](O)C[C@@H]1[C@@]3(C)CC[C@H](O)C(C)(C)[C@@H]3[C@@H](O[C@@H]3O[C@H](CO)[C@@H](O)[C@H](O)[C@H]3O)C[C@]12C [Ginsenoside Rg1] | 620 ± 331 ng | 638 ± 319 ng | BQL | – | – | – | 174 ng/mL | 118 ng/mL | 41.6 ng/mL | – | – | – | –
COc1c(CC=C(C)C)c(O)cc2oc(=O)c(-c3ccc(O)cc3O)cc12 [Glycycoumarin] | 2300 ± 1150 ng | 1600 ± 886 ng | 4.61 ± 4.20 ng | – | – | – | 5.58 ng/mL | 7.09 ng/mL | 5.09 ng/mL | 7010 ± 2840 ng | 3260 ± 1580 ng | 22.8 ± 19.7 ng | Plasma concentration, 0 h ([3]; mean ± S.D., n = 4): BQL; Plasma concentration, 4 h ([3]; mean ± S.D., n = 4): BQL; Plasma concentration, 8 h ([3]; mean ± S.D., n = 4): BQL; Plasma concentration of unchanged form before enzyme treatment ([3]; detected in only one subject, at any time point): approximately 30 pg/ml; concentration at 0.5 h ([3]; human, plasma, 0.5 h after single oral rikkunshito 7.5 g, mean ± S.D., n = 4, read-out: Plasma concentration, 0.5 h): 0.00923 ± 0.0185 ng/mL; concentration at 1 h ([3]; human, plasma, 1 h after single oral rikkunshito 7.5 g, mean ± S.D., n = 4): 0.00715 ± 0.0143 ng/mL; concentration at 2 h ([3]; human, plasma, 2 h after single oral rikkunshito 7.5 g, mean ± S.D., n = 4, read-out: Plasma concentration, 2 h): 0.00693 ± 0.0139 ng/mL; concentration at 0.5 h ([4]; human, plasma, oral, 0.5 h): 2.34 ng/mL; concentration at 1 h ([4]; human, plasma, oral, 1 h): 0.987 ± 0.36 ng/mL; concentration at 2 h ([4]; human, plasma, oral, 2 h, read-out: Plasma concentration in enzyme-treated plasma, 2 h): 0.328 ± 0.183 ng/mL; concentration at 4 h ([4]; human, plasma, oral, 4 h, read-out: Plasma concentration in enzyme-treated plasma, 4 h): 0.371 ± 0.113 ng/mL; concentration at 8 h ([4]; human, plasma, oral, 8 h, read-out: Plasma concentration in enzyme-treated plasma, 8 h): 0.222 ± 0.134 ng/mL; Plasma concentration in enzyme-treated plasma, 0 h ([4]; 0 h (preadministration)): BQL; Plasma concentration in enzyme-treated plasma, 0.5 h ([4]; 0.5 h): 2.34 ± 0.848 ng/mL
C=C1CCC[C@]2(C)C[C@]3(O)OC(=O)C(C)=C3C[C@@H]12 [IS, Atractylenolide III, reference compound] | – | – | – | – | – | – | – | – | – | – | – | – | Short-term stability of standard solution, RR ([6]; at room temperature for 24 h): IS: 100.0%; Long-term stability of standard solution, RR ([6]; refrigerator (0.5°C to 7.4°C) for 4 weeks): IS: 93.4%
CNCC(O)c1ccc(O)cc1 (stereo not shown) [Synephrine] | 2150 ± 296 ng | 798 ± 282 ng | 24.2 ± 28.8 ng | 3200 ng/mL | 3180 ng/mL | 2960 ng/mL | – | – | – | – | – | – | Plasma concentration, 0 h ([3]; mean ± S.D., n = 4): BQL; Plasma concentration, 0.5 h ([3]; 0.5 h after single oral rikkunshito 7.5 g, mean ± S.D., n = 4): 0.029 ± 0.058 ng/mL; Plasma concentration, 1 h ([3]; 1 h after single oral rikkunshito 7.5 g, mean ± S.D., n = 4): BQL; Plasma concentration, 2 h ([3]; 2 h after single oral rikkunshito 7.5 g, mean ± S.D., n = 4): BQL; Plasma concentration, 4 h ([3]; mean ± S.D., n = 4): BQL; Plasma concentration, 8 h ([3]; mean ± S.D., n = 4): BQL
CCCCC[C@H](O)CC(=O)CCc1ccc(O)c(OC)c1 [[6]-Gingerol, [6]-Gingerol] | – | – | – | – | – | – | 152 ng/mL | 154 ng/mL | 149 ng/mL | – | – | – | Amount in urine, Pre ([1]; human, in vivo): 18.6 ± 26.2 ng; Amount in urine, 0–4 h ([1]; human, in vivo, po): 602 ± 552 ng; Amount in urine, 4–8 h ([1]; human, in vivo, po): 35.0 ± 57.1 ng; Amount in enzyme-treated urine, 0–4 h ([5]; human, in vivo): 8170 ± 5630 ng; Amount in enzyme-treated urine, 4–8 h ([5]; human, in vivo): 821 ± 654 ng; Amount in enzyme-treated urine, Pre ([5]; human, in vivo): 278 ± 261 ng; Increase of urine concentration after β-glucuronidase treatment compared with before treatment ([5]; human, in vivo): more than 10 fold
CCCCC/C=C/C(=O)CCc1ccc(O)c(OC)c1 [[6]-Shogaol, [6]-Shogaol] | 459 ± 283 ng | 15.4 ± 30.7 ng | 16.3 ± 26.4 ng | 17.9 ng/mL | 18.5 ng/mL | 17.9 ng/mL | – | – | – | 4980 ± 1480 ng | 392 ± 310 ng | 109 ± 160 ng | Increase of urine concentration after β-glucuronidase treatment compared with before treatment ([5]; rikkunshito 7.5 g): more than 10 fold
CCCCCCC[C@H](O)CC(=O)CCc1ccc(O)c(OC)c1 [[8]-Gingerol, [8]-Gingerol] | 8.97 ± 17.9 ng | BQL | BQL | – | – | – | – | – | – | 49.5 ± 78.3 ng | BQL | 2.73 ± 5.46 ng | –
CCCCCCC/C=C/C(=O)CCc1ccc(O)c(OC)c1 [[8]-Shogaol, [8]-Shogaol] | 9.00 ± 18.0 ng | BQL | BQL | 2.00 ng/mL | 1.89 ng/mL | 1.83 ng/mL | – | – | – | 239 ± 62.5 ng | BQL | 3.73 ± 7.46 ng | Increase of urine concentration after β-glucuronidase treatment compared with before treatment ([5]; rikkunshito 7.5 g): more than 10 fold
